# Reference: paper PMC5201331, “Subchronic Toxicities of HZ1006, a Hydroxamate-Based Histone Deacetylase Inhibitor, in Beagle Dogs and Sprague-Dawley Rats” (International Journal of Environmental Research and Public …, 2016)
# Tested on: Beagle dogs
# Test: Subchronic toxicity test in Beagle dogs: hematology
# Format: in vivo
# Description: HZ1006 was administered orally to dogs (four/sex/group) at doses of 80, 40, 20, 5 and 0 (control) mg/kg/day, and the dosage volume was 2 mL/kg. The dogs received test doses with the exact amounts on a weekly basis based on current body weights. […] The other dogs in the above groups were dissected on the planned days. For the other groups, half of the dogs were anatomized on d28 and the remaining half on d42.
# The following indexes were examined for the dogs used in the study, twice during the pre-dosage period and on d14, d28 and d42. The following parameters were evaluated on d28 and d42 for the rats in the study:
# Blood samples of the animals were collected in tubes containing ethylenediamine tetraacetic acid (EDTA) and tested using an ADVIA2120 Hematology Autoanalyzer (Bayer, Leverkusen, Germany). The following indexes were examined: hemoglobin concentration (Hb), red blood cell count (RBC),mean corpuscular volume (MCV), hematocrit (HCT), mean corpuscular hemoglobin concentration (MCHC), mean corpuscular hemoglobin (MCH), white blood cell count (WBC), platelet count (Plt), WBC differential counts [neutrophilcyte (Neu), eosinophilic granulocyte (Eos), basophilic leukocyte (Bas), lymphocyte (Lym), and monocyte (Mon)] and reticulocytes (Ret). The serum coagulation times of the blood samples (1.8-mL samples were mixed with 0.2 mL sodium citrate), including prothrombin time (PT), fibrinogen (FIB), activated partial thromboplastin time (APTT), and thrombin time (TT), were tested using an MC10 plus Blood Coagulation Analyzer from Shanghai San Jose Medical Products Co., Ltd. (Shanghai, China).
# [1] = dog ♀6 (80 mg/kg/day oral), d0 (pre-dose)
# [2] = dog ♀6 (80 mg/kg/day oral), d14 line (moribund, euthanized d8)
# [3] = dog ♀28 (40 mg/kg/day oral), d0 (pre-dose)
# [4] = dog ♀28 (40 mg/kg/day oral), d14 (died d16)
# [5] = dogs, 5 mg/kg/day oral, d0 (pre-dose)
# [6] = dogs, 5 mg/kg/day oral, d42 (recovery)
# [7] = dogs, 20 mg/kg/day oral, d0 (pre-dose)
# [8] = dogs, 20 mg/kg/day oral, d42 (recovery)
smiles,measurement,setting,value
CCCCCCCNc1cc(/C=C/C(=O)NO)ccc1OCCN(CC)CC [HZ1006],APTT: Activated partial thromboplastin time,[1],13.9 s
same,RET: Reticulocytes,[1],1.37%
same,APTT: Activated partial thromboplastin time,[2],48.7 s
same,RET: Reticulocytes,[2],0.14%
same,APTT: Activated partial thromboplastin time,[3],12.4 s
same,RET: Reticulocytes,[3],0.75%
same,APTT: Activated partial thromboplastin time,[4],18.5 s
same,RET: Reticulocytes,[4],0.04%
same,APTT: Activated partial thromboplastin time,[5],13.6 ± 0.6 s
same,FIB: Fibrinogen,[5],2.25 ± 0.37 g/L
same,HCT: Hematocrit,[5],43.0 ± 2.6%
same,HGB: Hemoglobin concentration,[5],139 ± 8 g/L
same,MON: Monocyte,[5],4.4 ± 1.6%
same,RBC: Red blood cell count,[5],6.31 ± 0.45 ×10^12/L
same,RET: Reticulocytes,[5],0.77 ± 0.38%
same,APTT: Activated partial thromboplastin time,"dogs, 5 mg/kg/day oral, d14",13.2 ± 0.6 s
same,FIB: Fibrinogen,"dogs, 5 mg/kg/day oral, d14",2.53 ± 0.46 g/L
same,HCT: Hematocrit,"dogs, 5 mg/kg/day oral, d14",41.8 ± 2.7%
same,HGB: Hemoglobin concentration,"dogs, 5 mg/kg/day oral, d14",138 ± 9 g/L
same,MON: Monocyte,"dogs, 5 mg/kg/day oral, d14",4.2 ± 1.0%
same,RBC: Red blood cell count,"dogs, 5 mg/kg/day oral, d14",6.23 ± 0.46 ×10^12/L
same,RET: Reticulocytes,"dogs, 5 mg/kg/day oral, d14",0.62 ± 0.29%
same,APTT: Activated partial thromboplastin time,"dogs, 5 mg/kg/day oral, d28",13.1 ± 0.5 s
same,FIB: Fibrinogen,"dogs, 5 mg/kg/day oral, d28",2.56 ± 0.40 g/L
same,HCT: Hematocrit,"dogs, 5 mg/kg/day oral, d28",41.6 ± 2.4%
same,HGB: Hemoglobin concentration,"dogs, 5 mg/kg/day oral, d28",135 ± 8 g/L
same,MON: Monocyte,"dogs, 5 mg/kg/day oral, d28",4.4 ± 1.4%
same,RBC: Red blood cell count,"dogs, 5 mg/kg/day oral, d28",6.22 ± 0.43 ×10^12/L
same,RET: Reticulocytes,"dogs, 5 mg/kg/day oral, d28",0.49 ± 0.23%
same,APTT: Activated partial thromboplastin time,[6],13.4 ± 0.4 s
same,FIB: Fibrinogen,[6],2.89 ± 0.60 g/L
same,HCT: Hematocrit,[6],41.0 ± 1.8%
same,HGB: Hemoglobin concentration,[6],134 ± 7 g/L
same,MON: Monocyte,[6],4.0 ± 1.2%
same,RBC: Red blood cell count,[6],6.21 ± 0.36 ×10^12/L
same,RET: Reticulocytes,[6],0.61 ± 0.22%
same,APTT: Activated partial thromboplastin time,[7],12.4 ± 0.3 s
same,FIB: Fibrinogen,[7],4.07 ± 0.94 g/L
same,HCT: Hematocrit,[7],42.2 ± 3.9%
same,HGB: Hemoglobin concentration,[7],142 ± 13 g/L
same,MON: Monocyte,[7],4.7 ± 1.3%
same,RBC: Red blood cell count,[7],6.20 ± 0.58 ×10^12/L
same,RET: Reticulocytes,[7],0.96 ± 0.24%
same,APTT: Activated partial thromboplastin time,"dogs, 20 mg/kg/day oral, d14",12.5 ± 0.5 s
same,FIB: Fibrinogen,"dogs, 20 mg/kg/day oral, d14",4.30 ± 1.17 g/L
same,HCT: Hematocrit,"dogs, 20 mg/kg/day oral, d14",36.9 ± 2.2 %
same,HGB: Hemoglobin concentration,"dogs, 20 mg/kg/day oral, d14",118 ± 7 g/L
same,MON: Monocyte,"dogs, 20 mg/kg/day oral, d14",8.0 ± 2.3 %
same,RBC: Red blood cell count,"dogs, 20 mg/kg/day oral, d14",5.57 ± 0.30 ×10^12/L
same,RET: Reticulocytes,"dogs, 20 mg/kg/day oral, d14",0.53 ± 0.23 %
same,APTT: Activated partial thromboplastin time,"dogs, 20 mg/kg/day oral, d28",12.0 ± 0.7 s
same,FIB: Fibrinogen,"dogs, 20 mg/kg/day oral, d28",4.48 ± 1.68 g/L
same,HCT: Hematocrit,"dogs, 20 mg/kg/day oral, d28",36.6 ± 1.0 %
same,HGB: Hemoglobin concentration,"dogs, 20 mg/kg/day oral, d28",118 ± 3 g/L
same,MON: Monocyte,"dogs, 20 mg/kg/day oral, d28",9.0 ± 1.4 %
same,RBC: Red blood cell count,"dogs, 20 mg/kg/day oral, d28",5.57 ± 0.16 ×10^12/L
same,RET: Reticulocytes,"dogs, 20 mg/kg/day oral, d28",0.54 ± 0.19 %
same,APTT: Activated partial thromboplastin time,[8],12.8 ± 0.3 s
same,FIB: Fibrinogen,[8],4.26 ± 0.49 g/L
same,HCT: Hematocrit,[8],39.4 ± 1.7%
